In ChEMBL document CHEMBL4196134, “Enantiomeric Pairs of Meroterpenoids with Diverse Heterocyclic Systems from Rhododendron nyingchiense” (J Nat Prod, 2018):

Biological target: T1, Tyrosine-protein phosphatase non-receptor type 1 (Homo sapiens, UniProt P18031)
T1 sequence (P18031 whole entry): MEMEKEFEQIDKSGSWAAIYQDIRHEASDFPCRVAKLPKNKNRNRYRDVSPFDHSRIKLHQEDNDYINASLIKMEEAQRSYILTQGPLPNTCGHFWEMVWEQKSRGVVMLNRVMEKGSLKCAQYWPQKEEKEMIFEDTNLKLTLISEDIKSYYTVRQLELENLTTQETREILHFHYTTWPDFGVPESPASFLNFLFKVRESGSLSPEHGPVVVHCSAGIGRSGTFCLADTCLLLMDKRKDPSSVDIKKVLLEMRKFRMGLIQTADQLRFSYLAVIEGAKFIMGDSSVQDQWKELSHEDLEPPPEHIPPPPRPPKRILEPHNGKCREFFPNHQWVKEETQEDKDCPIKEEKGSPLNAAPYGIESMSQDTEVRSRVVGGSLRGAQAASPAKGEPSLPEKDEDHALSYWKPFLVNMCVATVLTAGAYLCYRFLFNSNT
Assay: Inhibition of recombinant human PTP1B catalytic domain ([…]) expressed in Escherichia coli BL21-codon plus (DE3) using pNPP as substrate measured continuously for 3 mins by colorimetric method

SMILES: C=C(C)[C@@H]1CC[C@]2(C)Oc3cc(O)cc(C)c3[C@H]1[C@H]2O
- IC50: 48.1 µM

SMILES: C=C(C)[C@H]1CC[C@@]2(C)Oc3cc(O)cc(C)c3[C@@H]1[C@@H]2O
- IC50: 29 µM

SMILES: Cc1cc(O)cc2c1[C@H]1[C@@H]3[C@@H](CC[C@]3(C)O2)C1(C)C
- IC50: 58.2 µM

SMILES: CC(C)=CCC/C(C)=C/CC/C(C)=C/Cc1c(O)cc(C)cc1O [GRIFOLIN]
- IC50: 5.7 µM

SMILES: C=C(C)[C@@H]1CC[C@]2(C)Oc3cc(O)cc(C)c3C[C@H]12
- IC50: 61 µM

SMILES: CC1=CC(=O)C=C2O[C@@]3(C)CC[C@H](C(C)(C)O)[C@H]3[C@H]3O[C@@]123
- IC50: 38.1 µM

SMILES: Cc1cc(O)cc2c1O[C@H]1OC(C)(C)[C@@H]3CC[C@@](C)(O2)[C@@H]13
- IC50: 43.6 µM
